Measurements: patent publication US10238670B2, “9-aminomethyl minocycline compounds and methods of use thereof in urinary tract infection (UTI) treatment” (Paratek Pharmaceuticals, Inc., priority 2016, dated 2019)
Converted amounts (≈) assume the structure as drawn. “And” between values parts separate entries of the source, which are not always exact repeats. Equal values may be shown once.

Experiments:
S. saprophyticus = experiment: In vitro MIC90 against common uncomplicated UTI pathogens; assay type: cell-based; details: Staphylococcus saprophyticus
Protocol: The minimum inhibitory concentrations for at least 90% of the isolates (MIC90) tested for Compound 1 against these common pathogens are 1 μg/mL for S. saprophyticus, 2 μg/mL for ESBL-negative E. coli, and 4 μg/mL for ESBL-producing E. coli.

E. coli FQS = experiment: In vitro MIC, 2010 surveillance isolates; assay type: cell-based, Escherichia coli; details: N=2906
plasma proteins [1] = experiment: In vitro plasma protein binding (ultrafiltration), human plasma; assay type: in vitro ADME
Protocol: (§1) For human binding studies, plasma was obtained from the blood of three healthy male volunteers. Plasma was defrosted from storage at -20° C. before use, and pools of human plasma were used for all studies. Plasma from mouse, rat, and monkey was supplied by Harlan Laboratories Ltd. (Netherlands), Milan […], Switzerland) and Centre de Primatologie ULP (France), respectively. Protein binding was measured using an ultrafiltration method. To asses the suitability of ultrafiltration, the recovery and free permeation of [^14C]-labelled Compound 1 in PBS buffer were investigated. […] Three 1 mL aliquots per concentration were introduced into […]® devices and spun for 1 min at 2000 g (filtrate ≤500 μL). Samples of the spiked solutions, the filtrate and retentate were quantified by LSC; volumes were determined by weighing. The free permeation of the test compound in PBS was evaluated as follows: Ratio=[Cuf/Cr] with Cuf being the concentration in the ultrafiltrate (ng/mL) and Cr the concentration in the retentate (ng/mL). […] Specifically, concentrations of Compound 1 was determined by an UPLC-MS/MS method. […] Standards and quality control samples were prepared on the day of analysis by adding a 20 μL aliquot of an appropriate standard or QC spiking solution in methanol. A 25 μL aliquot of the internal standard (at 200 ng/mL in methanol) was added to each well except blanks. […] Samples were processed using protein precipitation. A 0.5 mL aliquot of an acetonitrile/ethanol/acetic acid mixture (90:10:0.1, v:v:v) was added to each sample; samples were mixed using a vortex mixer for 10 minutes, and centrifuged 3800 rpm (approximately 2500×g) for 10 min at 10° C. A 500 μL aliquot of the supernatant transferred to a clean 96 well plate, 2 ml. An aliquot 500 μL of 80:20 (water:acetonitrile) was added to all the samples. Samples were mixed by vortexing for 0.5 min. A 6 μL sample volume was injected into the UPLC/MS/MS system for analysis. Samples were then assayed on an UPLC-MS/MS system, consisting of an Acquity UPLC with a quaternary pump, a ample manager, and sample organizer, coupled to a Sciex API4000 mass spectrometer running Analyst software version 1.4.2 (Foster City, Calif., USA). The mass spectrometer was operated in the positive ion mode, using electro spray ionization, with a source temperature of 500° C. Chromatographic separation was carried out on an Acquity BEH C18, 50×2.1, 1.7 particle (Waters, Mass.) at a flow rate of 1.0 mL/min. The column temperature was maintained at 65° C. […] The ions monitored for Compound 1 was the parent [M+H]^+ ion at m/z 557.3.0; the product ions at m/z 453.4. Data processing: Calibration curves (y=x^2+xb+c or y=ax+b), represented by the plots of the respective peak area ratios (y) of the analyte or the internal standard versus the concentrations (x) of the calibration samples, were generated using weighted (1/x^2 or 1/x) quadratic least-squares regression as the mathematical model. The quantification was performed using Analyst software and Watson LIMS version 7.2.0.01. Concentrations in QC and study samples were calculated from the resulting peak area ratios and interpolation from the regression equations of the respective calibration curves. The lower limit of quantitation was 5.0 ng/mL for Compound 1.

[2] = as above; assay type: in vitro ADME; details: male; human plasma; 10-10,000 ng/mL; mean±SD; read-out: mean unbound protein fraction (fu) in plasma
Protocol: as §1

E. coli (ATCC 25922) = experiment: Broth microdilution MIC against planktonic E. coli; assay type: cell-based; details: Escherichia coli, ATCC25922, extrapolated from OD650 plot after 24 hours, read-out: minimum inhibitory concentration (MIC)
Protocol: Antimicrobial activity of Compound 1 against E. coli (ATCC 25922) was determined using a standard broth microdilution method (CLSI in Methods for Dilution Antimicrobial Susceptibility Tests for Bacteria That Grow Aerobically, Approved Standard M7-A8, Clinical and Laboratory Standards Institute, Wayne, Pa. (USA), 2011, incorporated herein by reference) with slight modifications.

[3] = 14C-Compound 1 excretion and kidney/blood distribution in rats; assay type: in vivo, rat; details: for dose excreted in the urine: IV 5 mg/kg
Protocol: In rats, based on ^14C-Compound 1 dosed intravenously, approximately 30% of the dose (5 mg/kg) was excreted in the urine, with 25% excreted in the first 24 hours. The remainder of the dose was excreted into the feces. After IV dosing, the concentration of radioactivity in the kidney (cortex: 12,700 ng/g; medulla: 11,500 ng/g; pelvis: 11,300 ng/g) exceeded the blood concentration (1,570 ng/ml) 5 minutes post dose and at 24 hrs post dose (blood: 57.6 ng/ml; kidney cortex 318 ng/g; kidney medulla: 167 ng/g; kidney pelvis: 161 ng/g).

plasma proteins [4] = experiment: In vitro plasma protein binding (ultrafiltration), mouse plasma; assay type: in vitro ADME, mouse (CD-1); details: 10-10,000 ng/mL
Protocol: as §1, with “C.” for “C. A 500 μL aliquot of the supernatant transferred to a clean 96 well plate, 2 ml. An aliquot 500 μL of 80:20 (water:acetonitrile) was added to all the samples. Samples were mixed by vortexing for 0.5 min. A 6 μL sample volume was injected into the UPLC/MS/MS system for analysis. Samples were then assayed on an UPLC-MS/MS system, consisting of an Acquity UPLC with a quaternary pump, a ample manager, and sample organizer, coupled to a Sciex API4000 mass spectrometer running Analyst software version 1.4.2 (Foster City, Calif., USA). The mass spectrometer was operated in the positive ion mode, using electro spray ionization, with a source temperature of 500° C. Chromatographic separation was carried out on an Acquity BEH C18, 50×2.1, 1.7 particle (Waters, Mass.) at a flow rate of 1.0 mL/min. The column temperature was maintained at 65° C.”, “Data processing: Calibration curves (y=x^2+xb+c or y=ax+b), represented by the plots of the respective peak area ratios (y) of the analyte or the internal standard versus the concentrations (x) of the calibration samples, were generated using weighted (1/x^2 or 1/x) quadratic least-squares regression as the mathematical model.” left out

[5] = as above; assay type: in vitro ADME, mouse (CD-1); details: CD-1, 10-10,000 ng/mL, mean±SD, read-out: mean unbound protein fraction (fu) in plasma
Protocol: as §1, with “C.” for “C. A 500 μL aliquot of the supernatant transferred to a clean 96 well plate, 2 ml. An aliquot 500 μL of 80:20 (water:acetonitrile) was added to all the samples. Samples were mixed by vortexing for 0.5 min. A 6 μL sample volume was injected into the UPLC/MS/MS system for analysis. Samples were then assayed on an UPLC-MS/MS system, consisting of an Acquity UPLC with a quaternary pump, a ample manager, and sample organizer, coupled to a Sciex API4000 mass spectrometer running Analyst software version 1.4.2 (Foster City, Calif., USA). The mass spectrometer was operated in the positive ion mode, using electro spray ionization, with a source temperature of 500° C. Chromatographic separation was carried out on an Acquity BEH C18, 50×2.1, 1.7 particle (Waters, Mass.) at a flow rate of 1.0 mL/min. The column temperature was maintained at 65° C.”, “Data processing: Calibration curves (y=x^2+xb+c or y=ax+b), represented by the plots of the respective peak area ratios (y) of the analyte or the internal standard versus the concentrations (x) of the calibration samples, were generated using weighted (1/x^2 or 1/x) quadratic least-squares regression as the mathematical model.” left out

[6] = In vitro activity at pH 6.0 in media; assay type: cell-based
plasma proteins [7] = experiment: In vitro plasma protein binding (ultrafiltration), rat plasma; assay type: in vitro ADME, rat (HanWistar); details: 10-10,000 ng/mL
Protocol: (§2) For human binding studies, plasma was obtained from the blood of three healthy male volunteers. Plasma was defrosted from storage at -20° C. before use, and pools of human plasma were used for all studies. Plasma from mouse, rat, and monkey was supplied by Harlan Laboratories Ltd. (Netherlands), Milan […], Switzerland) and Centre de Primatologie ULP (France), respectively. Protein binding was measured using an ultrafiltration method. To asses the suitability of ultrafiltration, the recovery and free permeation of [^14C]-labelled Compound 1 in PBS buffer were investigated. […] Three 1 mL aliquots per concentration were introduced into […]® devices and spun for 1 min at 2000 g (filtrate ≤500 μL). Samples of the spiked solutions, the filtrate and retentate were quantified by LSC; volumes were determined by weighing. The free permeation of the test compound in PBS was evaluated as follows: Ratio=[Cuf/Cr] with Cuf being the concentration in the ultrafiltrate (ng/mL) and Cr the concentration in the retentate (ng/mL). […] Specifically, concentrations of Compound 1 was determined by an UPLC-MS/MS method. […] The ions monitored for Compound 1 was the parent [M+H]^+ ion at m/z 557.3.0; the product ions at m/z 453.4. […] The quantification was performed using Analyst software and Watson LIMS version 7.2.0.01. […] The lower limit of quantitation was 5.0 ng/mL for Compound 1.

[8] = as above; assay type: in vitro ADME, rat (HanWistar); details: HanWistar, 10-10,000 ng/mL, mean±SD, read-out: mean unbound protein fraction (fu) in plasma
Protocol: as §2

## CN(C)c1cc(CNCC(C)(C)C)c(O)c2c1C[C@H]1C[C@H]3[C@H](N(C)C)C(O)=C(C(N)=O)C(=O)[C@@]3(O)C(O)=C1C2=O [Compound 1, 9-[(2,2-dimethyl-propylamino)-methyl]-minocycline]
S. saprophyticus
  MIC90: 1 µg/mL (≈ 1.8 µM)
E. coli FQS; MIC 1 μg/ml
  Cumulative % Inhibition at MIC: 87.0%
E. coli FQS; MIC 2 μg/ml
  Cumulative % Inhibition at MIC: 96.6%
E. coli FQS; MIC 4 μg/ml
  Cumulative % Inhibition at MIC: 99.6%
E. coli FQS; MIC 8 μg/ml
  Cumulative % Inhibition at MIC: 99.9%
E. coli FQS; MIC 16 μg/ml
  Cumulative % Inhibition at MIC: 99.9%
E. coli FQS; MIC ≤0.5 μg/ml, listed as head image P00007
  Cumulative % Inhibition at MIC: 58.5%
E. coli FQS; MIC ≥32 μg/ml
  Cumulative % Inhibition at MIC: 100%
Plasma proteins [1]; human plasma, 10-10,000 ng/mL
  Mean (SD) Bound Fraction: 21% and 21.3 (9.72) %
  concentration dependency of plasma protein binding: not concentration dependent
Plasma proteins [1]; human plasma, 10-10,000 ng/mL, mean±SD
  mean unbound protein fraction (fu) in plasma: 78.7±9.7%
Plasma proteins [1]; male, human, plasma, Concentration 100 ng/mL
  fraction unbound at 100 ng/mL: 0.656
Plasma proteins [1]; male, human, plasma, Concentration 1,000 ng/mL
  fraction unbound at 1000 ng/mL: 0.878
Plasma proteins [1]; male, human, plasma, Concentration 10,000 ng/mL
  fraction unbound at 10000 ng/mL: 0.798
Plasma proteins [1]; male, human, plasma, Mean over concentrations
  fraction unbound: 0.787
[2]
  fraction unbound: 0.787 ± 0.0972
E. coli (ATCC 25922)
  MIC: 1.13 µg/mL (≈ 2.03 µM)
[3]; first 24 hours
  dose excreted in the urine: 25%
[3]; total
  dose excreted in the urine: approximately 30%
[3]; IV, 5 minutes post dose
  concentration of radioactivity, blood: 1,570 ng/ml
  concentration of radioactivity, kidney cortex: 12,700 ng/g
  concentration of radioactivity, kidney medulla: 11,500 ng/g
[3]; IV, 24 hrs post dose
  concentration of radioactivity, kidney cortex: 318 ng/g
  concentration of radioactivity, kidney medulla: 167 ng/g
  concentration of radioactivity, kidney pelvis: 161 ng/g
Plasma proteins [4]
  Mean (SD) Bound Fraction: 15.3 (5.31) %
Plasma proteins [4]; mean±SD
  mean unbound protein fraction (fu) in plasma: 84.7±5.3%
[5]
  fraction unbound: 0.847 ± 0.0531
[6]
  in vitro activity at pH 6.0 in media: somewhat decreased
Plasma proteins [7]
  Mean (SD) Bound Fraction: 26.1 (12.3) %
[8]
  fraction unbound: 0.739 ± 0.121
